According to PMC10824666 (Nature Cancer, 2023):
Like-named read-outs stand apart in the source and are kept apart here. Blank lines part the entries; values can stand above or below the compound they belong to.

Key:
Assay in all cases: biochemical
Set-up in all cases: Eurofins DiscoverX kinase panel, competitive binding assay at 1 uM, percent of DMSO control
CDK8 = CDK8 (Homo sapiens, UniProt P49336); conditions: competitive binding, percent of DMSO control
Summary of the method: (§1)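 Single-point profiling at 1 µM compound in a competition-binding format against 96 kinases, read out as POC relative to control; n = 1.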

Mps1 = target: T1, Mps1 (Homo sapiens, UniProt P33981); conditions: competitive binding, percent of DMSO control
T1 construct: gene TTK
T1 sequence (P33981 1-857): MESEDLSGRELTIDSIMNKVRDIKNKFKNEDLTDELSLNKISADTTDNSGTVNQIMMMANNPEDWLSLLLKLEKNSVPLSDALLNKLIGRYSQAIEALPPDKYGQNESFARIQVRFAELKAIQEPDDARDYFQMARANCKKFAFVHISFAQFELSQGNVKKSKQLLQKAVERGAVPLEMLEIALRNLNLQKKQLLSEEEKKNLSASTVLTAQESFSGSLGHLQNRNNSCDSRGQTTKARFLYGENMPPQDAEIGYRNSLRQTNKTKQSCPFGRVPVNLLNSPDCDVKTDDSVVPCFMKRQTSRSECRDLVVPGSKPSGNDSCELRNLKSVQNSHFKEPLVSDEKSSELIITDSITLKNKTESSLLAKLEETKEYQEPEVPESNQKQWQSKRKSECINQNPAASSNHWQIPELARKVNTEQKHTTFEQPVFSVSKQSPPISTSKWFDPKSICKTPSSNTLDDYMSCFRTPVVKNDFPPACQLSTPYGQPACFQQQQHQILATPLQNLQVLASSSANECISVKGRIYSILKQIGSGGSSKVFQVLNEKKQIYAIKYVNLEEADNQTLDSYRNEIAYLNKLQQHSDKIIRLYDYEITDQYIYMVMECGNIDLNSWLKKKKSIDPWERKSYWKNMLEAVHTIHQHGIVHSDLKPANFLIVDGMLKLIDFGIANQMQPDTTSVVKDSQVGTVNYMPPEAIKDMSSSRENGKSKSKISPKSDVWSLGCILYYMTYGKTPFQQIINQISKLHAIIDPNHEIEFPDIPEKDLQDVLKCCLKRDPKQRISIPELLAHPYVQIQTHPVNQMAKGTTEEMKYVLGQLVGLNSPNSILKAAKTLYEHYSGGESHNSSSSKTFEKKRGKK
Summary of the method: as §1

PRKAA1 = PRKAA1 (Homo sapiens, UniProt Q13131); conditions: competitive binding, percent of DMSO control
Summary of the method: as §1

WEE1 = WEE1 (Homo sapiens, UniProt P30291); conditions: competitive binding, percent of DMSO control
Summary of the method: as §1

PKA alpha = target: T2, PKA alpha (Homo sapiens, UniProt P17612); conditions: read-out: Kinome Profiling performed by Eurofins DiscoverX / AM-5308, 1.0 µM / POC; competitive binding, percent of DMSO control
T2 construct: gene PRKACA
Summary of the method: as §1

PKR = target: T3, PKR (Homo sapiens, UniProt P19525); conditions: read-out: Kinome Profiling performed by Eurofins DiscoverX / AM-5308, 1.0 µM / POC; competitive binding, percent of DMSO control
T3 construct: gene EIF2AK2
Summary of the method: as §1

[1] = read-out: Kinome Profiling performed by Eurofins DiscoverX / AM-1882, 1.0 µM / POC
[2] = read-out: Kinome Profiling performed by Eurofins DiscoverX / AM-5308, 1.0 µM / POC
[3] = read-out: Kinome Profiling performed by Eurofins DiscoverX / AM-0277, 1.0 µM / POC

Sequence of CDK8 (P49336 whole entry): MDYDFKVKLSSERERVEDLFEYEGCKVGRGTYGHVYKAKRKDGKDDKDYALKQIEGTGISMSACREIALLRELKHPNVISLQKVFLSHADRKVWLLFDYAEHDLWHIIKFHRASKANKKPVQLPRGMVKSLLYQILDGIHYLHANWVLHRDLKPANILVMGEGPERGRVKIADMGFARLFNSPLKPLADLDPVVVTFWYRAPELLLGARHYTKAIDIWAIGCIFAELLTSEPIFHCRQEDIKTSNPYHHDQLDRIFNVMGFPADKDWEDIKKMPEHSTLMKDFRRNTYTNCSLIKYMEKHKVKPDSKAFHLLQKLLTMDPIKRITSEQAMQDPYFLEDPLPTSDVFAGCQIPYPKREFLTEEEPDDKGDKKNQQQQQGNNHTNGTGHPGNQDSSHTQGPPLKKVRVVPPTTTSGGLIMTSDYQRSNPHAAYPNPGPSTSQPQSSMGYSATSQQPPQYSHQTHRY
Sequence of PRKAA1 (Q13131 whole entry): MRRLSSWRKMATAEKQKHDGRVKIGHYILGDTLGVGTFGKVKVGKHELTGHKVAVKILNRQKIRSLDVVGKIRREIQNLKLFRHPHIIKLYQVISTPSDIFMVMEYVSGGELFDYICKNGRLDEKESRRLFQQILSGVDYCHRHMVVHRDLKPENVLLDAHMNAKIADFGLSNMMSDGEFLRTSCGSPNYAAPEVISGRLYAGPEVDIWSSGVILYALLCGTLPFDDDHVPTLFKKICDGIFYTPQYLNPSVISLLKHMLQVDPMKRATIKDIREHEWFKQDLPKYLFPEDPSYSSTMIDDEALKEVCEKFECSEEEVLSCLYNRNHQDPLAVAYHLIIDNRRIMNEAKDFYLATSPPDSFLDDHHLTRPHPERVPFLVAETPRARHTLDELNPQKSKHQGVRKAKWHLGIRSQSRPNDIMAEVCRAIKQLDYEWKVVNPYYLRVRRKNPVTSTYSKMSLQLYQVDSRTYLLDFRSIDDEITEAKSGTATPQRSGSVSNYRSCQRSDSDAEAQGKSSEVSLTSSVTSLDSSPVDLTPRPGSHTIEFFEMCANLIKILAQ
Sequence of PRKAA1 (P54619 whole entry partner): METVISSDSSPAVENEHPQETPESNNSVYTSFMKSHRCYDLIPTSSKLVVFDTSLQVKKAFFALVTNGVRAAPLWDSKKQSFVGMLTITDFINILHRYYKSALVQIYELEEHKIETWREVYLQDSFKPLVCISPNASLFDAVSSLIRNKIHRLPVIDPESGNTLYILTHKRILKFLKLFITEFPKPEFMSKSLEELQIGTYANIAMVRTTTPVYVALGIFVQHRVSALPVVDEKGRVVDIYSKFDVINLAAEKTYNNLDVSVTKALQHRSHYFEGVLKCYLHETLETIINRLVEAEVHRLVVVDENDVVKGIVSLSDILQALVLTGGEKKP
Sequence of PRKAA1 (Q9Y478 whole entry partner): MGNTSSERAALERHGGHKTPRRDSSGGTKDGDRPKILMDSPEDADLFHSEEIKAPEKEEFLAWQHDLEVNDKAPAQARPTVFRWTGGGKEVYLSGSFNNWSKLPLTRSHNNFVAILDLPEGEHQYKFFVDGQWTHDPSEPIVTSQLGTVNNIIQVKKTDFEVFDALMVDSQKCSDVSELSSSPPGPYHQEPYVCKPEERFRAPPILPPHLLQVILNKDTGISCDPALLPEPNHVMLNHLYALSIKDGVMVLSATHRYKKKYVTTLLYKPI
Sequence of WEE1 (P30291 whole entry): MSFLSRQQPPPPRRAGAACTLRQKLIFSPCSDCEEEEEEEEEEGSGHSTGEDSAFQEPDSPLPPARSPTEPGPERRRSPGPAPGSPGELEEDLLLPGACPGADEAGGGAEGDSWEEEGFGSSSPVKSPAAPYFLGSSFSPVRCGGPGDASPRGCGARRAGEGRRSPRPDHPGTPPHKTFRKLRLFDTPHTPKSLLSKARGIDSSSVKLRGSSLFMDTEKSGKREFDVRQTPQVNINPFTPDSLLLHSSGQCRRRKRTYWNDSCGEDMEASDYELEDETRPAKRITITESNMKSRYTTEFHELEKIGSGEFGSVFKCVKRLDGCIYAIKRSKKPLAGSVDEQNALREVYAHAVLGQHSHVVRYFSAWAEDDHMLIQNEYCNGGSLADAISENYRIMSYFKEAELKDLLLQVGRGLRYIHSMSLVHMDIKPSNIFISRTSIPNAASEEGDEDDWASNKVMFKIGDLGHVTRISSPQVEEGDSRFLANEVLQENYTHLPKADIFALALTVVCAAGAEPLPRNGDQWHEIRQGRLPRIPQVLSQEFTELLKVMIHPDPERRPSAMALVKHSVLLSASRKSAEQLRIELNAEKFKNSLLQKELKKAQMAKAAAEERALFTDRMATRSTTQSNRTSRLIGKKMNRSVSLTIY
T3 sequence (P19525 whole entry): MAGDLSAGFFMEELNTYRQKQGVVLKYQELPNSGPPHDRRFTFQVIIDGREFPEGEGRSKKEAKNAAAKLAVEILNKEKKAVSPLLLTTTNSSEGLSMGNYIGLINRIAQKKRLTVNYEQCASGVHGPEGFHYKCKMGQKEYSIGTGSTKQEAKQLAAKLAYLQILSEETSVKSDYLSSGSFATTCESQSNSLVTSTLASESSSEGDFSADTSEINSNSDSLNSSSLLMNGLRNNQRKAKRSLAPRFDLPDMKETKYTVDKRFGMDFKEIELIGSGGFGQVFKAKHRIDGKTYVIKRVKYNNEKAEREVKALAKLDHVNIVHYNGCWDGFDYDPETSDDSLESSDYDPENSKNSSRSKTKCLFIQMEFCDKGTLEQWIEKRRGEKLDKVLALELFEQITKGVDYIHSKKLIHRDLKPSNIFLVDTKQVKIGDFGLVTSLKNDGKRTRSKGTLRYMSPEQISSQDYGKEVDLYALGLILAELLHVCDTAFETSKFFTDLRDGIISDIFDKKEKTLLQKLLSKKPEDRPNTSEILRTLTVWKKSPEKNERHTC

remaining activity at 1 µM (CDK8; [1]): 34.5%
remaining activity at 1 µM (Mps1; [1]): 97%
remaining activity at 1 µM (PRKAA1; [1]): 100%
remaining activity at 1 µM (WEE1; [1]): 50%
Structure (SMILES): CC(C)(C)NS(=O)(=O)c1cccc(NC(=O)c2ccc(S(=O)(=O)NC(C)(C)C)cc2N2CCC3(CC2)CC3)c1 [AM-1882]

remaining activity at 1 µM (CDK8; [2]): 87%
remaining activity at 1 µM (Mps1; [2]): 47%
remaining activity at 1 µM (PKA alpha): 100%
remaining activity at 1 µM (PKR): 90%
remaining activity at 1 µM (PRKAA1; [2]): 97%
remaining activity at 1 µM (WEE1; [2]): 100%
Structure (SMILES): C[C@@H]1CN(c2cccc(NC(=O)c3ccc(NS(=O)(=O)CCO)cc3N3CCC4(CC3)CC4)n2)CCO1 [AM-5308]

remaining activity at 1 µM (CDK8; [3]): 70%
remaining activity at 1 µM (Mps1; [3]): 76%
remaining activity at 1 µM (PRKAA1; [3]): 96%
remaining activity at 1 µM (WEE1; [3]): 100%
Structure (SMILES): CC(C)(CO)Nc1ccc(C(=O)Nc2cccc(S(=O)(=O)C3CCCC3)c2)c(N2CCC3(CC2)CC3)n1 [AM-0277]
